Data taken from PMC5656517 (European journal of pharmaceutical sciences : official …, 2017).
Converted amounts (≈) assume the structure as drawn. Read-outs that look alike come from different tables or passages of the source.

What was measured:
CYP3A4 (midazolam) = CYP3A4 (midazolam) (Homo sapiens, UniProt P08684); experiment: KI and kinact determination in human liver microsomes; type: in vitro ADME
CYP3A4 [1] = target: T1, CYP3A4 (Homo sapiens, UniProt P08684); experiment: KI and kinact determination with recombinant CYP3A4; type: in vitro ADME
Target sequence in this assay (P08684 2-503 limits assumed): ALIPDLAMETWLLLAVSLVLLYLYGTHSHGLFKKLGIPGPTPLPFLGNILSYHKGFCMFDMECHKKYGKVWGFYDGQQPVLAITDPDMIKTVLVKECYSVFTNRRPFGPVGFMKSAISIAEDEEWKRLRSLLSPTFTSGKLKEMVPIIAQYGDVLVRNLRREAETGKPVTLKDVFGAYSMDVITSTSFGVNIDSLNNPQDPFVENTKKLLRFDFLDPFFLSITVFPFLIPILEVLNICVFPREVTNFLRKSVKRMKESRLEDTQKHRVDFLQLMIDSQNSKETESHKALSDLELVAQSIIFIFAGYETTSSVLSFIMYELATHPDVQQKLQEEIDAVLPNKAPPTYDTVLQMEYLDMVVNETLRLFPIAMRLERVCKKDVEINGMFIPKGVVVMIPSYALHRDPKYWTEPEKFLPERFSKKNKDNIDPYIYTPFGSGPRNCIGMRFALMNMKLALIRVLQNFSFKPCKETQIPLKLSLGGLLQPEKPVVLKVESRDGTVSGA

CYP3A4 [2] = target: T1, CYP3A4; type: in vitro ADME; conditions: human liver microsomes, 100 µM
Target sequence in this assay (P08684 whole entry): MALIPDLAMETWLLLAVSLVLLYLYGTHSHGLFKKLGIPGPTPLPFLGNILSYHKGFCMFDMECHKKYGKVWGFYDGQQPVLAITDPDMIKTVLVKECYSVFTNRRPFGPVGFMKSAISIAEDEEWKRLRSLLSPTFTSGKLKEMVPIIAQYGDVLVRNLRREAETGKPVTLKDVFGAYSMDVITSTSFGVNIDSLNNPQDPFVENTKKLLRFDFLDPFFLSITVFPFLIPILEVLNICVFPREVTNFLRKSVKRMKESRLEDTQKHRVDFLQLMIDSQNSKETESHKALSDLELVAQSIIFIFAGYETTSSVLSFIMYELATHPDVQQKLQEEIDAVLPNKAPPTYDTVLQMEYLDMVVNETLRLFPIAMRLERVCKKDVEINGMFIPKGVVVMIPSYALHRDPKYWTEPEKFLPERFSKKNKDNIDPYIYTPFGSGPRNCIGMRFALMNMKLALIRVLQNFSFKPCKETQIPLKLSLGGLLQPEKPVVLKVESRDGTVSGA

CYP3A4 [3] = target: T1, CYP3A4; type: in vitro ADME; conditions: recombinant human CYP3A4, 20 µM
Target sequence in this assay (P08684 2-503 limits assumed): as the sequence (P08684 2-503 limits assumed) above

CYP2C19 [4] = target: T2, CYP2C19 (Homo sapiens, UniProt P33261); conditions: human liver microsomes, substrate (S)-mephenytoin, mean ± standard deviation
T2 sequence (P33261 whole entry): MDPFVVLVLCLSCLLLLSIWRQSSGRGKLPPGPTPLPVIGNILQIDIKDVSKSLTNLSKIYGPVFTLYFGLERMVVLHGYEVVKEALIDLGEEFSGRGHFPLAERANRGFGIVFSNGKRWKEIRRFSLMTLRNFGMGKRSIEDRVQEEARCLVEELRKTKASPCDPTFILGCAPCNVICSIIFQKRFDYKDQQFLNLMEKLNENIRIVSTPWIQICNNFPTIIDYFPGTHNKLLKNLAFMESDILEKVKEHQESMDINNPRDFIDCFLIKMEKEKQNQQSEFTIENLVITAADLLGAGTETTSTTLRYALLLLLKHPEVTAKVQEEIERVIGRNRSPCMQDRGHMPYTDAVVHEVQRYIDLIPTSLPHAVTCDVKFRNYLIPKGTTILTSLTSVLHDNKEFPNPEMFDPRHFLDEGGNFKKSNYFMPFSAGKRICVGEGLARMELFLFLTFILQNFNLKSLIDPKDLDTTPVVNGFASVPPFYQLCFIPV

CYP2C8 = target: T3, CYP2C8 (Homo sapiens, UniProt P10632); experiment: Single concentration; conditions: human liver microsomes
T3 sequence (P10632 1-490): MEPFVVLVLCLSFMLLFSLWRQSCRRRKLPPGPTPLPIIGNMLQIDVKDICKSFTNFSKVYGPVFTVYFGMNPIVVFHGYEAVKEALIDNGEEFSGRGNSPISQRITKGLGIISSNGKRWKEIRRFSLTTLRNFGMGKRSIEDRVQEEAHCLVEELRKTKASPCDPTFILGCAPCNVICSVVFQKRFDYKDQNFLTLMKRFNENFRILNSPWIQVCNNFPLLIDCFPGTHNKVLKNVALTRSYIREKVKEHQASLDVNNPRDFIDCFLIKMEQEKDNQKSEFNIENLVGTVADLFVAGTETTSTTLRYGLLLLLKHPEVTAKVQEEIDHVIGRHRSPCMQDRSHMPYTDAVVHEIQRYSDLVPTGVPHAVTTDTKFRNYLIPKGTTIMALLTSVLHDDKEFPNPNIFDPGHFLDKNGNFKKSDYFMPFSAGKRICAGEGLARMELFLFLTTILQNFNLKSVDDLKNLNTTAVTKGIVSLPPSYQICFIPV

CYP2C9 [5] = target: T4, CYP2C9 (Homo sapiens, UniProt P11712); experiment: Single concentration; conditions: human liver microsomes
T4 sequence (P11712 whole entry): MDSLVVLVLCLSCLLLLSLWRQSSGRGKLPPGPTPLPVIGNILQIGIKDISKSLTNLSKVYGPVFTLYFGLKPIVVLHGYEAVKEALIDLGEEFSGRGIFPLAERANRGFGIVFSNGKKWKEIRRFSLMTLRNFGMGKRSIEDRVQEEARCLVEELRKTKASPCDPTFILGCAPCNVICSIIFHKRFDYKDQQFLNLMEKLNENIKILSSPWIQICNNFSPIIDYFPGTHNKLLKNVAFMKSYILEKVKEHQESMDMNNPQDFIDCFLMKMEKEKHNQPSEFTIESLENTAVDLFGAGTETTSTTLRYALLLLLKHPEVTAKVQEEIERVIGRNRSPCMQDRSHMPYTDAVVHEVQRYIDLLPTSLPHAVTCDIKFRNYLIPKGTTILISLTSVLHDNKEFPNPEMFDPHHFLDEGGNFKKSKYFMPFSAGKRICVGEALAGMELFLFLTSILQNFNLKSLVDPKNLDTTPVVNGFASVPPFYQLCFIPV

CYP2C19 [6] = target: T2, CYP2C19; experiment: Single concentration; conditions: human liver microsomes
CYP3A4 [7] = target: T1, CYP3A4; experiment: Single concentration; conditions: human liver microsomes
Target sequence in this assay (P08684 whole entry): as the sequence (P08684 whole entry) above

CYP2A6 = target: T5, CYP2A6 (Homo sapiens, UniProt P11509); experiment: Cocktail assay IC50 determination in human liver microsomes; conditions: substrate coumarin
T5 sequence (P11509 1-494): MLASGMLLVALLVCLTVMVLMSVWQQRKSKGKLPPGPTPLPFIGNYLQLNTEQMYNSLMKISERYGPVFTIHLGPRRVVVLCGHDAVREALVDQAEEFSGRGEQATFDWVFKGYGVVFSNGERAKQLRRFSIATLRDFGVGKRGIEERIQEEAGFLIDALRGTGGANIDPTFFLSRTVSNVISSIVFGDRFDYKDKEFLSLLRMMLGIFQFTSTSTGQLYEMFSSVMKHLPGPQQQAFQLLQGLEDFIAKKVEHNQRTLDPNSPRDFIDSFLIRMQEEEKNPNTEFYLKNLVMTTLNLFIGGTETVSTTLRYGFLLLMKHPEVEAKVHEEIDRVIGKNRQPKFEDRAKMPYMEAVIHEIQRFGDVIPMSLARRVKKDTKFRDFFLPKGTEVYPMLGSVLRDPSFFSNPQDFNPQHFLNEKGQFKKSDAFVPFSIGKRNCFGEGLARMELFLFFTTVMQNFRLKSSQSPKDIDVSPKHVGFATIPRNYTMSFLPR

cytochrome P450 enzymes = experiment: Single concentration; conditions: test concentration of 10 µM
CYP1A2 = target: T6, CYP1A2 (Homo sapiens, UniProt P05177); experiment: Cocktail assay IC50 determination in human liver microsomes; conditions: substrate phenacetin, mean ± standard deviation
T6 sequence (P05177 1-516): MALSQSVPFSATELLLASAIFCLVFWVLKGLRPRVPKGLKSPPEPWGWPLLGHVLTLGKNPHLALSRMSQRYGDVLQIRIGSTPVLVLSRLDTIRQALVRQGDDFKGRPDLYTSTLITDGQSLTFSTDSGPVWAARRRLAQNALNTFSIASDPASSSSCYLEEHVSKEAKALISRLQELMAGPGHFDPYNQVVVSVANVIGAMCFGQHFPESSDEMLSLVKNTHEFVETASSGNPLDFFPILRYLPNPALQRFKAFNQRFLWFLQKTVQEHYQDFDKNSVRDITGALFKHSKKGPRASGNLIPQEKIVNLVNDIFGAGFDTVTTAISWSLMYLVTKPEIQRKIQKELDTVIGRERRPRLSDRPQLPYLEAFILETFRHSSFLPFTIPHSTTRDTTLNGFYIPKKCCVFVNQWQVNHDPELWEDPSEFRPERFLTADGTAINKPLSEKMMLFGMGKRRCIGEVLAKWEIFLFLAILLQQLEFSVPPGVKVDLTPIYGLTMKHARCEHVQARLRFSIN

CYP2C9 [8] = target: T4, CYP2C9; experiment: as above
CYP3A4 [9] = target: T1, CYP3A4; experiment: Single point time-dependent inhibition screening assay in human liver microsomes
Target sequence in this assay (P08684 whole entry): as the sequence (P08684 whole entry) above

CYP3A4 [10] = target: T1, CYP3A4; experiment: Cocktail assay IC50 determination in human liver microsomes; conditions: mean ± standard deviation
Target sequence in this assay (P08684 whole entry): as the sequence (P08684 whole entry) above

[11] = NADPH, 1000 U/mL superoxide dismutase
[12] = without NADPH, mean of two experiments

CYP3A4 (midazolam), sequence (P08684 whole entry): as the sequence (P08684 whole entry) above

## C=CC(C)(C)c1cc(/C=C/C(=O)c2ccc(O)cc2)c(OC)cc1O [Licochalcone A, licochalcone A]
CYP3A4 (midazolam); human liver microsomes
  Efficiency of inactivation: 0.0033 µM⁻¹ min⁻¹
  kinact for inactivation of CYP3A4 (midazolam): 0.38 min⁻¹
CYP3A4 (midazolam); human liver microsomes and recombinant CYP3A4
  type of CYP3A4 inhibition, conclusion in words: mechanism based inhibitor
CYP3A4 (midazolam); read-out: KI for inactivation of CYP3A4 (midazolam), human liver microsomes
  KI (inactivation): 116 µM
CYP3A4 [1]; read-out: KI for inactivation of CYP3A4 (midazolam), recombinant human CYP3A4
  KI (inactivation): 2.22 µM
CYP3A4 [1]; recombinant CYP3A4
  Efficiency of inactivation: 0.021 µM⁻¹ min⁻¹
CYP3A4 [1]; recombinant human CYP3A4
  kinact for inactivation of CYP3A4 (midazolam): 0.047 min⁻¹
CYP3A4 [2]; NADPH, 2 mM glutathione
  % Control activity: 38.5%
CYP3A4 [2]; NADPH, 1000 U/mL catalase
  % Control activity: 42.4%
CYP3A4 [2]; [11]
  % Control activity: 46.9%
CYP3A4 [2]; NADPH, mean of two experiments
  % Control activity: 49.5%
CYP3A4 [2]; [12]
  % Control activity: 100%
CYP3A4 [3]; NADPH, 2 mM glutathione
  % Control activity: 32.4%
CYP3A4 [3]; NADPH, 1000 U/mL catalase
  % Control activity: 38.8%
CYP3A4 [3]; [11]
  % Control activity: 28.1%
CYP3A4 [3]; NADPH, mean of two experiments
  % Control activity: 42.0%
CYP3A4 [3]; [12]
  % Control activity: 100%
CYP2C19 [4]
  IC50, CYP2C19: 3.60 ± 0.79 µg/mL (≈ 10.6 µM)
CYP2C8
  inhibition of CYP2C8 at 10 µM, in words: strongly inhibited
CYP2C9 [5]
  inhibition of CYP2C9 at 10 µM, in words: strongly inhibited
CYP2C19 [6]
  inhibition of CYP2C19 at 10 µM, in words: moderate inhibitor
CYP3A4 [7]
  inhibition of CYP3A4 (testosterone) at 10 µM, in words: moderate inhibitor
CYP2A6
  IC50, CYP2A6: >25 µg/mL
Cytochrome P450 enzymes
  inhibition of one or more cytochrome P450 enzymes: more than 50%
CYP1A2
  IC50, CYP1A2: 12.40 ± 3.47 µg/mL (≈ 36.6 µM)
CYP2C9 [8]; lower end of the range of IC50 values
  IC50, CYP2C9: high nM levels
CYP2C9 [8]; substrate tolbutamide, mean ± standard deviation
  IC50, CYP2C9: 0.78 ± 0.09 µg/mL (≈ 2.3 µM)
CYP3A4 [9]
  time-dependent inhibition of CYP3A4 (midazolam), in words: demonstrated time-dependent inhibition
CYP3A4 [10]; substrate midazolam
  IC50, CYP3A4 (midazolam): 16.05 ± 1.91 µg/mL (≈ 47.4 µM)
CYP3A4 [10]; substrate testosterone
  IC50, CYP3A4 (testosterone): 6.78 ± 1.27 µg/mL (≈ 20 µM)
